In patent US7671054B1, “Reverse-turn mimetics and method relating thereto” (Choongwae Pharma Corporation, priority 2001, dated 2010):
Entries after “also recorded” stand apart in the source; their conditions may differ.

Tests used:
[1] = system: TCF4/β-catenin transcription (TOPFlash) in SW480 cells; assay: Reporter gene assay (TOPFlash luciferase); format: cell-based; conditions: Homo sapiens, SW480, Table 10; prodrug compounds, reporter gene assay TopF; read-out: RGA, TopF IC50
Outline: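 SW480 cells transiently co-transfected with TOPFlash and pRL-null (4:1 µg) using Superfect, then reseeded at 3×10^4 cells/well and incubated overnight at 37 °C. Compound treatment lasted 24 h before luciferase read-out.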

HCT116 cells [2] = assay: MTS cytotoxicity test; format: cell-based; conditions: Homo sapiens, HCT-116, Table 10, prodrug compounds, 24 hours treatment, read-out: MTS, HCT116 (uM) LD50
Protocol: (§1) SW480 or HCT116 cells were placed into 96 well microplate (10^4cells/well) and incubated for 24 hours at 37° C. The cells were treated with TCF4 compound at various concentrations for 24 hours. 20 μl of MTS solution (Promega) was added into each well and incubated for 2 hours at 37° C. Cell viability was measured by reading the absorbance at 490 nm using microplate reader (Molecular Device) and cytotoxicity of a compound at each concentration was calculated.

SW480 cells [3] = assay: MTS cytotoxicity test; format: cell-based; conditions: Homo sapiens, Table 10, prodrug compounds, 24 hours treatment, read-out: MTS, SW480 (uM) LD50
Protocol: as §1

HCT116 cells [4] = assay: Growth inhibition assay (MTS); format: cell-based; conditions: Homo sapiens, HCT-116; Table 10; prodrug compounds, HCT116 cells, growth inhibition; read-out: MTS, HCT116 (uM) GI50
Outline: (§2)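 Cells seeded at 10^4 per well, grown 24 h at 37° C, then exposed to compound at various concentrations for 48 hours. MTS added for 2 h; absorbance at 490 nm gave viability, with cytotoxicity calculated per concentration against pre-treatment reading.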

SW480 cells [5] = assay: Growth inhibition assay (MTS); format: cell-based; conditions: Homo sapiens; Table 10; prodrug compounds, SW480 cells, growth inhibition; read-out: MTS, SW480 (uM) GI50
Outline: as §2

[6] = system: survivin promoter in SW480 cells; assay: Survivin luciferase reporter in SW480 cells; format: cell-based; conditions: for IC50: Homo sapiens, SW480, Table 10, prodrug compounds, reporter gene assay Survivin, read-out: RGA, Survivin IC50
[7] = system: S.D. rats with Mycobacterium butyricum-induced polyarthritis; assay: Rat adjuvant-induced arthritis model; format: in vivo
Protocol: To induce polyarthritis, six-week-old male S.D. rats received intradermal injection (base of tail) of 100 μl of Mycobacterium butyricum (Cat. No. 264010, Difco) in mineral oil (5 mg/ml) on Day 0. The test compound, Compound F, was given once daily at Day 1, 2, 3, 4, 5, 8, 10, 12 and 14 by oral gavage. […] The paw thickness was measured with digital caliper (Mitutoyo, Japan) and the arthritic index was accessed (FIG. 21).

[8] = system: TNF-α in serum of ICR mice; assay: Serum TNF-α induced by intraperitoneal LPS; format: in vivo, mouse; conditions: perorally 60 min prior to LPS, blood 90 min after
Protocol: Male young ICR mice received intraperitoneal injection of LPS (E. coli O111:B4). Compound F was administered perorally 60 min prior to LPS challenge and blood was drawn 90 min subsequent to challenge. Vehicle control mice received the pharmacological carrier used for Compound F only. Concentration of TNF-α in the serum was determined by ELISA method. […] For reference, dexamethasone (Dex, Sigma) was treated (15 mg/kg, oral).

[9] = system: NF-κB in stably transfected A549 cells; assay: NF-κB reporter assay; format: cell-based; conditions: PMA 10 ng/ml, 6 hr
Protocol: Cells were transferred into each well of 96 well white opaque plates (1×10^4 cells/well/50 μl) and incubated 24 hr at 37° C. in 5% CO2 incubator. The test compound, Compound F, was added to each well, and 1 hr later, phorbol 12-myristate 13-acetate (PMA) (10 ng/ml) was added into each well. Plates were incubated further for 6 hr at 37° C. in 5% CO2 incubator. One hundred microliter of Dual-glo FireFly substrate (Promega) was added and incubated for 10 min. Luminescence of each well was measured with a luminometer (Victor II) (FIG. 23).

[10] = system: TNF-α production in THP-1 cells; assay: LPS-induced TNF-α production in THP-1 cells; format: cell-based; conditions: Homo sapiens, LPS 100 ng/ml, 6 hr
Protocol: LPS-induced TNF-α production in THP-1 cells: THP-1 cells were incubated with 200 nM PMA for 24 hr. Cells were harvested with trypsin and seeded into 96 well tissue culture plates (2×10^4 cells/well). The test compound, Compound F, was added to each well followed by LPS (100 ng/ml). The cells were further incubated for 6 hr at 37° C. in a CO2 incubator. Media was collected and concentration of TNF-α was determined with the ELISA kit (OptEIA, BD).

[11] = system: IL-2 production in Jurkat cells; assay: PMA/ionomycin-induced IL-2 production in Jurkat cells; format: cell-based; conditions: Homo sapiens, 6 hr
Protocol: PMA/lonomycin-induced IL-2 production in Jurkat cells: Jurkat cells were seeded into 96 well tissue culture plates (1×10^5 cells/well) and treated with the test compound, Compound F, and further incubated for 60 min at 37° C. in a CO2 incubator. Stimulant (10 ng/ml PMA and 1 μg/ml ionomycin) was added into each well, and the cells were further incubated for 6 hr at 37° C. in a CO2 incubator. Supernatant was collected and concentration of IL-2 was determined with the ELISA kit (OptEIA, BD).

[12] = system: min mice (polyp formed in small intestine and colon); assay: Min mouse model; format: in vivo; conditions: about 300 mpk
Protocol: Selected compounds of the present invention (Compound B and Compound C) were evaluated in the min mouse model to evaluate their efficacy as anti-cancer agents.
The min mouse model is a widely used model to test for this type of efficacy. The numbers of polyp formed in small intestine and colon of these mice after various treatments were measured (Table 7).

HUVEC = assay: Tube formation assay (In Vitro Angiogenesis Assay Kit); format: cell-based; conditions: 0.1-10 μM, 12 h
Protocol: Tube formation assay was performed using an In Vitro Angiogenesis Assay Kit (Chemicon International, Inc., Temecula, Calif., USA). Briefly, solid gels were prepared according to the manufacturer's manual on a 96-well tissue culture plate. HUVEC (1×10^5 cells/ml) in HuMedia EG-2 medium containing […] were seeded 100 μl per well onto the surface of the solid gel, ECMatrix™. The cells were incubated with vehicle control, Compound E at 0.1 μM, 0.3 μm, 1.0 μM, 3 μM, and 10 μM, or Fumagilin at 10 μM for 12 h at 37° C. in a CO2 incubator. Tube formation was observed under an inverted light microscope at ×100 magnification. Microscopic fields were photographed with a digital camera.

SW480 cells [13] = assay: Soft agar assay, Compound A with 5-FU; format: cell-based; conditions: for LD50, soft agar assay: 8 days
Protocol: Compound A solution and upper layer solution containing agarose were mixed, and SW480 cells were added and solidified. Plates were incubated 37° C. at CO2 incubator for 8 days after solidification at room temperature for 30 min, and colonies were counted under microscope (FIG. 19).

Structure (SMILES) | IC50 [1] | IC50 (HCT116 cells [2]) | IC50 (SW480 cells [3]) | GI50 (HCT116 cells [4]) | GI50 (SW480 cells [5]) | IC50 [6] | other results
CN1CC(=O)N2[C@@H](Cc3ccc(OP(=O)(O)O)cc3)C(=O)N(Cc3ccc(F)cc3F)C[C@@H]2N1C(=O)NCc1ccccc1 [Compound 4] | 7.3 µM | 49.3 µM | > 50 µM | 11.4 µM | 6.9 µM | 6.5 µM | –
CC(C)C[C@H]1C(=O)N(CCC(c2ccccc2)c2ccccc2)C[C@H]2N1C(=O)CN(C)N2C(=O)NCc1ccccc1 [Compound F] | – | – | – | – | – | – | increase of paw thickness ([7]; oral 30 mg/kg): significantly ameliorated the increase of paw thickness; increase of paw thickness ([7]; oral 100 mg/kg): significantly ameliorated the increase of paw thickness; LPS-induced TNF-α in serum [8]: reduces LPS-induced TNF-α production in serum in a dose-dependent manner; NF-κB reporter activity [9]: effective in inhibiting NF-κB transcription; IC50 [10]: 7.08 µM; IC50 [11]: 8.48 µM
CCCN1CC(=O)N2[C@@H](Cc3ccc(OP(=O)(O)O)cc3)C(=O)N(Cc3cccc4cccnc34)C[C@@H]2N1C(=O)NCc1ccccc1 [Compound 10] | 2.8 µM | 7 µM | 0.4 µM | 0.8 µM | 0.9 µM | 1.7 µM | –
CN(C)c1cc(CN2C[C@H]3N(C(=O)CN(C)N3C(=O)NCc3ccccc3)[C@@H](Cc3ccc(OP(=O)(O)O)cc3)C2=O)ccc1Cl [Compound 13] | 1.8 µM | 20 µM | 21.1 µM | 1.7 µM | 2.3 µM | 0.9 µM | –
C=CCN1CC(=O)N2[C@@H](Cc3ccc(OP(=O)(O)O)cc3)C(=O)N(Cc3ccc(Cl)c4cccnc34)C[C@@H]2N1C(=O)NCc1ccccc1 [Compound 7] | 2.3 µM | 12 µM | 12.9 µM | 1.8 µM | 2.2 µM | 1 µM | –
CN1CC(=O)N2[C@@H](Cc3ccc(O)cc3)C(=O)N(Cc3cccc4cccnc34)C[C@@H]2N1C(=O)NCc1ccccc1 [Compound B] | – | – | – | – | – | – | number of polyp compared to vehicle control mice [12]: reduce the number of polyp in min mice
CN(C)c1cc(F)c(F)cc1CN1C[C@H]2N(C(=O)CN(C)N2C(=O)NCc2ccccc2)[C@@H](Cc2ccc(OP(=O)(O)O)cc2)C1=O [Compound 14] | 1.7 µM | 16 µM | 21.1 µM | 2.1 µM | 2.3 µM | 1.2 µM | –
C=CCN1CC(=O)N2[C@@H](Cc3ccc(O)cc3)C(=O)N(Cc3ccccc3)C[C@@H]2N1C(=O)NCc1ccccc1 [Compound E] | – | – | – | – | – | – | tube formation (HUVEC): inhibited tube formation in a dose-dependent manner
CN1CC(=O)N2[C@@H](Cc3ccc(O)cc3)C(=O)N(Cc3cccc4ccccc34)C[C@@H]2N1C(=O)NCc1ccccc1 [Compound A] | – | – | – | – | – | – | survivin luciferase reporter activity ([6]; SW480 cells, various concentrations): inhibit expression of survivin; also recorded: inhibit the activity of a survivin luciferase reporter; synergy with 5-FU in soft agar assay (SW480 cells [13]): synergism of anti-cancer activity; also recorded: synergy; LD50, soft agar assay (SW480 cells [13]; in combination with 0 μM 5-FU): 76 µM; LD50, soft agar assay (SW480 cells [13]; in combination with 1 μM 5-FU): 30 µM; LD50, soft agar assay (SW480 cells [13]; in combination with 4 μM 5-FU): 2 µM
CN1CC(=O)N2[C@@H](Cc3ccc(OP(=O)(O)O)cc3)C(=O)N(Cc3cccc4ccccc34)C[C@@H]2N1C(=O)NCc1ccccc1 [Compound 2] | 3.5 µM | 23.2 µM | 8.2 µM | 6.6 µM | 3.1 µM | 5.7 µM | –
